# Patent US20190134148A1, “COMBINATION THERAPY” (BIG DNA LTD, priority 2016, published 2019)
# Where two headings read alike, the source gives them in different places.
# Key:
# [1] = tested on: T47D breast cancer cell line; assay: Sulforhodamine B viability assay and isobologram / combination index in T47D cells; type: cell-based; conditions: for CI: single agent
# Experimental: For assessment of combined BTZ and cilengitide toxicity, T47D cells were seeded at a density of 7500 cells/cm^2 in 96-well cell culture plates and incubated for 24 hours. Cilengitide was diluted to 20 μM in complete DMEM, then 3 serial tenfold dilutions of this were performed in complete DMEM (2 μM, 200 nM and 20 nM). Complete DMEM containing no cilengitide was provided for negative controls.
# These dilutions (or DMSO for wells containing no BTZ) were added to aliquots of complete DMEM containing 0-20 μM cilengitide for a 1/150 dilution. Aliquots (0.1 mL) of each mixture were added to wells already containing 0.1 mL medium (in duplicate), resulting in a matrix of cilengitide (10 nM-10 μM) and/or BTZ (1 nM-10 μM) or neither agent (diluent only).
# OD570nm readings were divided by those resulting from negative control (diluent only) wells and expressed as a percentage. Three independent replicates of this experiment were carried out.
# The isoboles were obtained similarly by extrapolation of points representing 50% reduction in viability from line graphs of % viability versus concentration of one agent at variable concentration with the other agent supplied at a fixed concentration.
# The position of the points on this graph (FIG. 6) indicates whether a combined effect is synergistic (falling below/left of the line) antagonistic (falling above/right of this line) or additive (on or close to this line).
# CA,x and CB,x are the concentrations of drug A and drug B used in combination to achieve x % drug effect. ICx,A and ICx,B are the concentrations for single agents to achieve the same effect.
# [2] = tested on: NCI H-929 human multiple myeloma cells; assay: NCI-H929 sub-cutaneous xenograft mouse tumor model, 'high' bortezomib dose (Example 7); type: in vivo, SCID mouse; conditions: for Complete response / No response / Partial response: mice of N = 10; for Complete response / No response / Partial response / Total RR %: bortezomib 1 mg/kg IV biweekly, cilengitide 45 mg/kg IP QD; for Total RR %: sum of PR+CR
# From the text: This was then continued until Day 21.
# Partial response (PR) is defined as the first measurement of the tumor volume being 50% or less of its Day 1 volume for three consecutive measurements during the course of the study, and equal to or greater than 13.5 mm^3 for one or more of these three measurements. In a complete response (CR), the tumor volume was less than 13.5 mm^3 for three consecutive measurements during the course of the study. Total response rate (RR) is the sum of PR+CR. Treatment began on day 1 and was stopped on Day 21.
# [3] = Cilengitide oral bioavailability, plasma level by LC-MS after intra-gastric gavage; type: in vivo; conditions: mice, 100 mg/kg intra-gastric gavage
# Experimental: 3 mice were dosed with cilengitide at 100 mg/kg by intra-gastric gavage. Bleeds (0.1 mL) were taken before dosing and 5 and 15 minutes post dosing. Terminal bleeds (orbital vein) were taken at 60 minutes post-dose. All bleeds were transferred into Li-heparin tubes and plasma prepared by centrifugation. Aliquots of plasma (pooled per timepoint) were processed for analysis by addition of 3 volumes of acetonitrile, centrifuged for 1 minute at 13,000 rpm, then the supernatant recovered.
# Samples were analysed by LC-MS alongside standards containing known amounts of cilengitide (1 ng/mL-1000 ng/mL). Cilengitide was undetectable in pre-dose, 5 minute and 15 minute time points. At the 60 minute time point: cilengitide levels were estimated to be 94.2 ng/mL.
# [4] = CD-1 mice; 4 mg/kg PO versus 0.8 mg/kg intravenously; cited from earlier work
# [5] = target: 20S proteasome (Homo sapiens, UniProt P20618+P28074); conditions: cited from earlier work
# [6] = Sprague-Dawley rats; AUC intravenous versus intra-gastric administration; cited from earlier work
# [7] = tested on: NCI H-929 multiple myeloma cell line; assay: NCI H-929 sub cutaneous tumour study with varied BTZ dose, TGI and TTE (Example 8); type: in vivo, mice; conditions: day 18
# Experimental: Cilengitide or vehicle was supplied as daily intra-peritoneal injection (45 mg/kg). […] After this point, dosing was continued in groups receiving 0.2 mg/kg and 0.5 mg/kg BTZ t cilengitide until day 31 to allow comparative tumour growth delay (i.e. difference in time to endpoint (TTE). […] TTE was calculated as TTE=[log(endpoint volume)-b]/m where TTE is expressed in days, endpoint volume is expressed in mm^3, b is the intercept, and m is the slope of the line obtained by linear regression of a log-transformed tumour growth data set. TTE values were plotted in Kaplan-Meier diagrams (FIGS. 9 and 10).
# [8] = tested on: WSU-DLCL2 lymphoma xenograft; conditions: at MTD; cited from earlier work
# [9] = tested on: CWR22 human prostate cancer xenografts; conditions: cited from earlier work
# [10] = tested on: DP54-Luc model; conditions: in vivo; cited from earlier work
# [11] = tested on: PHTX22L xenografts; conditions: MTD level treatment; cited from earlier work
# [12] = phase II trials; heavily pretreated patient population; cited from earlier work
# [13] = tested on: Cos7 cells; assay: Sulforhodamine B relative cell growth assay in Cos7 cells; type: cell-based; conditions: COS-7 (αvβ3−ve); 10 μM proteasome inhibitor without cRGDfK
# [14] = tested on: chymotrypsin-like activity of the proteasome; conditions: highest dose used in the phase I trial; cited from earlier work
# [15] = tested on: HEK293 cells; assay: Sulforhodamine B relative cell growth assay in HEK293 cells; type: cell-based; conditions: HEK293 (αvβ3+ve); 10 μM proteasome inhibitor without cRGDfK
# Experimental: Established methodology was used to prepare 80-100% confluent monolayers of HEK293 cells in T75 flasks. Cells were cultured in DMEM (Lonza) supplemented with 10% FBS (Gibco), 2 mM L-glutamine, 100 U/mL penicillin and 100 μg/mL streptomycin (“complete DMEM”).
# The cells in T75 flasks were trypsinised and resuspended in complete DMEM. The cells were counted using a Neubauer chamber and seeded at approximate density of 3×10^4 cells/cm^2 and 7500 cells/cm^2 in 96 well flat bottomed tissue culture plates (Corning) 0.1 mL cell suspension per well. Cells were incubated for 24 hours at 37° C./5% CO2 (humidified). […]
# Briefly: medium was removed from wells and replaced with an equal volume of PBS. […] Optical density (OD570nm) was determined using an ELISA plate reader (Dynex MRX, Dynex Technologies).
# In total, 5 replicates of the experiment were carried out. Cells treated with peptide/BTZ mixtures or control mixtures were incubated for 24 hours at 37° C./5% CO2 (humidified) then analysed by sulforhodamine B assay.
# The average of the background measurements (i.e. no cells, medium only) was subtracted from each reading. ‘Ti’ is OD570nm following 24 hours treatment with drugs. […]
# Using these equations, control cell growth is assigned a relative cell growth value of 100% and all cell growth values are calculated relative to this figure. […]
# [16] = target: chymotrypsin-like sites (Homo sapiens, UniProt P28074); conditions: cited from earlier work
# chymotrypsin-like sites, sequence (P28074 60-263): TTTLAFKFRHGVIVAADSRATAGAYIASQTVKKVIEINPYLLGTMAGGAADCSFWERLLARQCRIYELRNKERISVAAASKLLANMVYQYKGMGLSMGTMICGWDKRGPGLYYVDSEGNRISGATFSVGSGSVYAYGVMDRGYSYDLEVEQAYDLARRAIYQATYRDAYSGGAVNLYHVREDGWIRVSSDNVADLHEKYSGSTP
# [17] = By Day 42, treatment stopped on Day 21, N = 10
# [18] = at maximum tolerated dose (MTD)
smiles,measurement,setting,value
CC(C)[C@H]1C(=O)N[C@@H](CCCN=C(N)N)C(=O)NCC(=O)N[C@@H](CC(=O)O)C(=O)N[C@H](Cc2ccccc2)C(=O)N1C [Cilengitide],IC50,"[1]; read-out: Cilengitide (M), concentration resulting in 50% reduction in viability as single agent (IC50), bortezomib 0",6.2e-06 M
same,CI,[1],1.00
same,Complete response,[2]; Day 1,0
same,No response,[2]; Day 1,10
same,Partial response,[2]; Day 1,0
same,Total RR %,"[2]; Day 1, N = 10",0%
same,Complete response,[2]; Day 4,0
same,No response,[2]; Day 4,10
same,Partial response,[2]; Day 4,0
same,Total RR %,"[2]; Day 4, N = 10",0%
same,Complete response,[2]; Day 8,0
same,No response,[2]; Day 8,10
same,Partial response,[2]; Day 8,0
same,Total RR %,"[2]; Day 8, N = 10",0%
same,Complete response,[2]; Day 12,0
same,No response,[2]; Day 12,10
same,Partial response,[2]; Day 12,0
same,Total RR %,"[2]; Day 12, N = 10",0%
same,Complete response,[2]; Day 15,0
same,No response,[2]; Day 15,10
same,Partial response,[2]; Day 15,0
same,Total RR %,"[2]; Day 15, N = 10",0%
same,Complete response,[2]; Day 18,0
same,No response,[2]; Day 18,10
same,Partial response,[2]; Day 18,0
same,Total RR %,"[2]; Day 18, N = 10",0%
same,Complete response,[2]; Day 21,0
same,No response,[2]; Day 21,10
same,Partial response,[2]; Day 21,0
same,Total RR %,"[2]; Day 21, N = 10",0%
same,cilengitide levels in plasma,[3]; 5 minute time point,undetectable
same,cilengitide levels in plasma,[3]; 15 minute time point,undetectable
same,level at 1 h,"[3]; mouse, plasma, po, 60 minute time point, read-out: cilengitide levels in plasma",94.2 ng/mL
CC(C)C[C@H](NC(=O)[C@H](Cc1ccccc1)NC(=O)c1cnccn1)B(O)O [Bortezomib],estimated oral bioavailability,[4],approximately 11%
same,CI,[1],1.00
same,proteasome dissociation half-life,[5],approximately 110 minutes
same,mice showing a complete response,"[2]; By Day 8, bortezomib 1 mg/kg",10%
same,animals remained 'cured' (tumours did not regrow),"[2]; By Day 42, treatment stopped on Day 21",60%
same,animals that reached end point (tumour volume>2000 mm^3),[2]; [17],1
same,animals that relapsed,[2]; [17],3 animals
same,Complete response,[2]; Day 1,0
same,No response,[2]; Day 1,10
same,Partial response,[2]; Day 1,0
same,Total RR %,"[2]; Day 1, N = 10",0%
same,Complete response,[2]; Day 4,0
same,No response,[2]; Day 4,7
same,Partial response,[2]; Day 4,3
same,Total RR %,"[2]; Day 4, N = 10",30%
same,Total RR %,"[2]; Day 4, N = 10, listed as bortezomib",30%
same,Complete response,[2]; Day 8,1
same,No response,[2]; Day 8,3
same,Partial response,[2]; Day 8,6
same,Total RR %,"[2]; Day 8, N = 10",70%
same,Complete response,[2]; Day 12,4
same,No response,[2]; Day 12,2
same,Partial response,[2]; Day 12,4
same,Complete response,[2]; Day 15,4
same,No response,[2]; Day 15,2
same,Partial response,[2]; Day 15,4
same,Complete response,[2]; Day 18,4
same,No response,[2]; Day 18,1
same,Partial response,[2]; Day 18,5
same,Total RR %,"[2]; Day 18, N = 10",90%
same,Complete response,[2]; Day 21,5
same,No response,[2]; Day 21,1
same,Partial response,[2]; Day 21,4
same,Total RR %,"[2]; Day 21, N = 10",90%
same,Total RR %,"[2]; Day 21, N = 10, listed as bortezomib",90%
same,mice that failed to respond at all,"[2]; last treatment day (Day 21), bortezomib 1 mg/kg",10%
same,calculated bioavailability,[6],46%
same,Tumour growth inhibition (TGI),"[7]; 0.5 mg/kg BTZ and below, without cilengitide",virtually ineffective
same,Tumour growth inhibition (TGI),"[7]; BTZ doses of 0.7 mg/kg and greater, biweekly intravenous",almost complete TGI
same,anti-tumoral activity,[8],ineffective
same,anti-tumoral activity,[9]; [18],effective anti-tumoral activity
"CC(C)C[C@H](NC(=O)CNC(=O)c1cc(Cl)ccc1Cl)B(O)O [Ixazomib, [(1R)-1-[[2-[(2,5-dichlorobenzoyl)amino]acetyl]amino]-3-methyl-butyl]boronic acid]",proteasome dissociation half-life,[5],approximately 18 minutes
same,"release from proteasome, fold faster than bortezomib",[5],approximately 6 fold
same,alleviation of osteolytic bone disease,[10],effective
same,anti-tumoral activity,[8],significant anti-tumoral activity
same,anti-tumoral effect,[11],only ixazomib was found to exhibit an anti-tumoral effect
same,anti-tumoral activity,[9]; at half the MTD,more effective than bortezomib
same,anti-tumoral activity,[9]; [18],effective anti-tumoral activity
CC(C)C[C@H](NC(=O)[C@H](CCc1ccccc1)NC(=O)CN1CCOCC1)C(=O)N[C@@H](Cc1ccccc1)C(=O)N[C@@H](CC(C)C)C(=O)[C@@]1(C)CO1 [Carfilzomib],partial response rate,[12],24%
same,Growth relative to untreated control cells,[13],"greater activity than ixazomib, delanzomib and oprozomib"
same,inhibition of the chymotrypsin-like activity of the proteasome in blood of patients,[14],88%
same,Growth relative to untreated control cells,[15],"greater activity than ixazomib, delanzomib and oprozomib"
C[C@@]12OC(=O)[C@]1([C@@H](O)[C@@H]1C=CCCC1)NC(=O)[C@@H]2CCCl [Marizomib],inhibition of the chymotrypsin-like sites,[16],up to 100%
